Assay results: patent US20210261569A1, “FUSED HETEROCYCLIC DERIVATIVES HAVING SELECTIVE BACE1 INHIBITORY ACTIVITY” (Shionogi & Co., Ltd., priority 2018, published 2021)

Experiments:
[1] = molecular target: T1, P-gp (MDR1 expressing LLC-PK1 cells) (Homo sapiens, UniProt P08183); assay: P-gp substrate test; assay type: in vitro ADME; conditions: MDR1 expressing LLC-PK1 cells vs parent LLC-PK1 cells
T1 construct: host or cells: LLC-PK1 (porcine kidney) cells
Experimental: 1. MDR1 expressing LLC-PK1 cells and its parent cells were routinely cultured in Medium A (Medium 199 (Invitrogen) supplemented with 10% FBS (Invitrogen), gentamycin (0.05 mg/mL, Invitrogen) and hygromycin B (100 μg/mL, Invitrogen)) at 37° C. under 5% CO2/95% 02 gasses. For the transport experiments, these cells were seeded on Transwell (Registered trademark) insert (96-well, pore size: 0.4 μm, Coaster) at a density of 1.4×10^4 cells/insert and added Medium B (Medium 199 supplemented with 10% FBS and gentamycin at 0.05 mg/mL) to the feeder tray. These cells were incubated in a CO2 incubator (5% CO2/95% 02 gasses, 37° C.) and replace apical and basolateral culture medium every 48-72 hr after seeding. These cells were used between 4 and 6 days after seeding. 2. The medium in the culture insert seeded with MDR1 expressing cells or parent cells were removed by aspiration and rinsed by HBSS. The apical side (140 μL) or basolateral side (175 μL) was replaced with transport buffer containing reference substrates and the present invention and then an aliquot (50 μL) of transport buffer in the donor side was collected to estimate initial concentration of reference substrate and the present invention. After incubation for designed time at 37° C., an aliquot (50 μL) of transport buffer in the donor and receiver side were collected. Assay was performed by duplicate or triplicate. 3. Reference substrate and the present invention in the aliquot was quantified by LC/MS/MS.
Permeated amounts across monolayers of MDR1 expressing and parent cells were determined, and permeation coefficients (Pe) were calculated using Excel 2003 from the following equitation:
Pe (cm/sec)=Permeated amount (pmol)/area of cell membrane (cm^2)/initial concentration (nM)/incubation time (sec) Where, permeated amount was calculated from permeation concentration (nM, concentration of the receiver side) of the substance after incubation for the defined time (sec) multiplied by volume. (mL) and area of cell membrane was used 0.1433 (cm2). The efflux ratio was calculated using the following equation:
Efflux Ratio=Basolateral-to-Apical Pe/Apical-to-Basolateral Pe
The net flux was calculated using the following equation:
Net flux=Efflux Ratio in MDR1 expressing cells/Efflux Ratio in parent cells

[2] = system: Abeta 1-42 in cerebrospinal fluid (CSF); assay: Pharmacology in the beagle dog: beta-amyloid profile in cerebrospinal fluid; assay type: in vivo; conditions: single dose 0.63 mg/kg
Experimental: Test compounds were tested to evaluate the effect on the beta-amyloid profile in cerebrospinal fluid (CSF) of dogs after a single dose, in combination with pharmacokinetic (PK) follow up and limited safety evaluation.
In the case of compounds shown below, two or 4 beagle dogs (1 or 2 male, 1 or 2 female) were dosed with vehicle (1 mL/kg of an aqueous solution of 20% cyclodextrin) and 4 beagle dogs (2 males and 2 females) per dose group were dosed with test compound at the doses indicated in the following Table in an aqueous 20% cyclodextrin solution with a concentration in mg/mL identical to the dose given in mg/kg) on an empty stomach.
CSF was taken in conscious animals directly from the lateral ventricle via a cannula which was screwed in the skull and covered with subcutaneous tissue and skin, before and at 4, 8, 25 and 49 hours after dosing. Eight hours after dosing the animals got access to their regular meal for 30 minutes. Blood was taken for PK follow up (0.5, 1, 2, 4, 8, 25 and 49 hours) and serum samples for biochemistry were taken before and at 8 and 25 h after dosing. The CSF samples were used for measurement of Abeta 1-37, Abeta 1-38, Abeta 1-40 and Abeta 1-42.

T1 sequence (P08183 whole entry): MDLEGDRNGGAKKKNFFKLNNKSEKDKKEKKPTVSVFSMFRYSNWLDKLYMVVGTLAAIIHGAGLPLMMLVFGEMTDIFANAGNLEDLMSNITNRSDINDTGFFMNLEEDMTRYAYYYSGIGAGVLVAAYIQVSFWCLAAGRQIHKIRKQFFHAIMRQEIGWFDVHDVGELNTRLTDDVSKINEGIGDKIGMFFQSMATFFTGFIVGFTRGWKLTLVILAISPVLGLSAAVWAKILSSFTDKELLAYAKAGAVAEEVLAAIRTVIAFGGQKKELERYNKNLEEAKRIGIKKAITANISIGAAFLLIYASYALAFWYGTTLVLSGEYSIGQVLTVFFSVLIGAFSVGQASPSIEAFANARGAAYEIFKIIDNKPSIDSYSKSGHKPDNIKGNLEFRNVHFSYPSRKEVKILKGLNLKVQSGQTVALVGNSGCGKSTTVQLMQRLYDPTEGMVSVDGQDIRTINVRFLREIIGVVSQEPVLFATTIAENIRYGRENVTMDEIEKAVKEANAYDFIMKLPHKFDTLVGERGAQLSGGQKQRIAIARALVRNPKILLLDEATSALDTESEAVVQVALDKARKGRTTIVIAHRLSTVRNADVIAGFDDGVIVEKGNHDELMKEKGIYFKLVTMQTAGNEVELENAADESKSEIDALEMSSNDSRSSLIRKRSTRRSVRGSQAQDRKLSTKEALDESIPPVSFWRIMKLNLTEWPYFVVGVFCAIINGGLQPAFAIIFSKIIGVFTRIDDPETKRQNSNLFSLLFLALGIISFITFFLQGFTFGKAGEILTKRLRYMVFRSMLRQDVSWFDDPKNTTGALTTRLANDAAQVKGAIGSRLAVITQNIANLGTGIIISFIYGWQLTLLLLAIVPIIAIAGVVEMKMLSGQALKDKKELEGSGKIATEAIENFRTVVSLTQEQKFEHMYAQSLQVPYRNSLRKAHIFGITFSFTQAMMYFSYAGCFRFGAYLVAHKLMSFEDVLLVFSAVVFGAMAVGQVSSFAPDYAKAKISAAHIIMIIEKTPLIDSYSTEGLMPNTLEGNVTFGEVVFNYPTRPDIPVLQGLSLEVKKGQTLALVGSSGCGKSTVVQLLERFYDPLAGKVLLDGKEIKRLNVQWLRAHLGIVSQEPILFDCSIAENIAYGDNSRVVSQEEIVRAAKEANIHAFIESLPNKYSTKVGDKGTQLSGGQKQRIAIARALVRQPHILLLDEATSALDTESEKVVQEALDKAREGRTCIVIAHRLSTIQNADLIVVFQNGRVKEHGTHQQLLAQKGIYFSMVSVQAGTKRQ

| SMILES | P-gp ER ratio [1] | % change in Abeta 1-42 from own baseline ([2]; 8 h) [%] | % change in Abeta 1-42 from own baseline ([2]; 24 h or 25 h) [%] |
| --- | --- | --- | --- |
| NC1=N[C@](CF)(c2cc(NC(=O)c3cnc(OCF)cn3)ccc2F)[C@H]2[C@H](CC(F)F)OC[C@H]2O1 [Compound I-116] | 5.2 | – | – |
| C[C@@H]1OC[C@H]2[C@@H]1OC(N)=N[C@]2(CF)c1cc(NC(=O)c2cnc(OCF)cn2)ccc1F [Compound I-082] | 3.6 | −58 | −41 |
